Experimental data published in patent US6358919B1 (priority 1997, dated 2002).

Test system: influenza virus A/PR/8/34(H1N1)
Experiment: ELISA inhibition of influenza virus binding to immobilised GM3
Conditions: 1 nmol GM3 per well, virus suspension 32 HAU, pre-incubated at 4° C. for two hours

CC(=O)N[C@H]1[C@H]([C@H](O)[C@H](O)CO)O[C@@](O[C@H]2[C@@H](O)[C@@H](CO)O[C@@H](O[C@H]3[C@H](O)[C@@H](O)C(O)O[C@@H]3CO)[C@@H]2O)(C(=O)O)C[C@@H]1O (stereo partly shown) [Sialyl lactose]
IC50 per molecule: 1.5e-07 mol
